These are literature values, as cited in PMC2074382 (British Journal of Cancer, 1996).

Molecules are shown by their SMILES.

For data set [1] the following is noted: clinical; cited from earlier work.
On the set-up of data set [2]: method as in PMID 5081595, PMID 8137244. The settings on record: in vitro and in vivo pharmacology; cited from earlier work.
On the set-up of data set [3]: method as in Rowinsky et al., 1992; Verweij et al., 1993. Conditions: daily x 5 schedule; ref Rowinsky et al., 1992; Verweij et al., 1993; cited from earlier work.

In the case of `CCc1c2c(nc3ccc(OC(=O)N4CCC(N5CCCCC5)CC4)cc13)-c1cc3c(c(=O)n1C2)COC(=O)[C@]3(O)CC` [Irinotecan], the induced toxicity entry in data set [1] is given as “neutropenia in addition to diarrhoea”.
As to `CC[C@@]1(O)C(=O)OCc2c1cc1n(c2=O)Cc2cc3c(CN(C)C)c(O)ccc3nc2-1` [topotecan], the “potency relative to GI147211 (fold less potent)” value in data set [2] is listed as 2.2 fold. Besides, the dose-limiting toxicity result in data set [3] is reported as “myelosuppression”.
